Experimental data from patent US20050002552A1, “Automated in vitro cellular imaging assays for micronuclei and other target objects” (Pfizer Inc, priority 2003, published 2005).
Where two headings read alike, the source gives them in different places.

Legend:
[1] = tested on: Chinese hamster ovary cells; settings: cut-off two to three times the negative control value (1.1%); both wells, automated and manual scoring
From the text: A small quantity of a discovery drug candidate will be added to each well (the amount will usually be in the range of from 0 micrograms to about 500 micrograms and often in the range of from 0 micrograms to about 100 micrograms), desirably in a carrier medium containing DMSO (dimethyl sulfoxide), ethanol, methanol, acetonitrile, and/or water.
A mixture such as one containing amino acids (e.g., L-glutamine), serum (e.g., 5% fetal bovine serum), and glucose will be added to the wells to provide an aqueous growth medium for the cells. […] The presence of binucleated cells in the microwell at the end of the process is proof that nuclear division occurred in the presence of the discovery drug candidate.
After the cells become attached to the plate bottom, a chemical stimulus (agent) such as a discovery drug candidate can be added to each well. […]
If more than one micronuclei is found in a single cell, the cell is likely undergoing nuclear fragmentation as a result of apoptosis (programmed cell-death) and, accordingly, should be discarded from the final analysis. The micronuclei rate or frequency can be calculated as the number of micronucleated cells divided by the total number of nuclear division in a sample (the rate or frequency may be converted to a percentage by multiplying the rate or frequency by 100).

[2] = tested on: Chinese hamster ovary cells; settings: stated as known; cited from earlier work
[3] = tested on: Chinese hamster ovary cells; test: In vitro micronucleus assay, non-Cytochalasin B protocol (mononucleated cells); settings: cut-off double the DMSO value (micronuclei frequencies of 1.2% and higher are positive); manual or automated scoring; per run
Method: Accordingly, the method of this invention was also used to determine micronuclei frequency in non-cytokinesis-blocked cell samples (i.e., cell samples that were not treated with Cytochalasin B or the like) and, therefore, which were mononucleated.
In the second set of experiments, Chinese hamster ovary cells were used and the only difference in treatment and image acquisition protocol between runs in this set was the stimulus (i.e., chemical agent) with which the cells were incubated. Cytochalasin B was not used is this set of experiments (and, thus, the cells remained virtually all mononucleated throughout the experiment).

CO[C@@]12[C@H](COC(N)=O)C3=C(C(=O)C(C)=C(N)C3=O)N1C[C@@H]1N[C@@H]12 [Mitomycin C]
Response call (clastogenic/aneugenic) against negative control [1]: positive response
Known aneugenicity/clastogenicity (positive control) [2]: aneugenic/clastogenic
Response call (clastogenic/aneugenic) against negative control [3]: positive
